Data as given in patent US20060160811A1, “Aryl-condensed 3-arylpridine compounds and use thereof for controlling pathogenic fungi” (priority 2003, published 2006).

test system: Leptosphaeria nodorum; assay: Activity against leaf blotch on wheat caused by Leptosphaeria nodorum, protective application; type: in vivo; conditions: protective spray, wheat cultivar Kanzler, inoculated next day, visual rating after 8 days, untreated control 80%
Method: The active compounds were prepared as a stock solution with 0.25% by weight of active compound in acetone or DMSO (dimethyl sulfoxide). 1% by weight of the emulsifier Uniperol® EL (wetting agent having emulsifying and dispersing action based on ethoxylated alkylphenols) was added to this solution, and the solution was diluted with water to the desired concentration.
Activity against leaf blotch on wheat caused by Leptosphaeria nodorum, protective application.
Pots with wheat plants of the cultivar “Kanzler” were sprayed to runoff point with an aqueous suspension having the concentration of active compound stated below. The next day, the pots were inoculated with an aqueous spore suspension of Leptosphaeria nodorum. The plants were then placed in a chamber at 20° C. and maximum atmospheric humidity. After 8 days, the leaf blotch on the untreated but infected control plants had developed to such an extent that the degree of infection could be determined visually in %.

`CC1CCN(c2nc3ncncc3c(Cl)c2-c2c(F)cc(F)cc2F)CC1` and `Fc1cc(F)c(-c2c(Cl)nc3ncncc3c2Cl)c(F)c1` [drawing 26] are the same in “Leaf infection [%] at 250 ppm” value: 3% for the first, 3% for the second.

For `Oc1nc2nccnc2c(O)c1-c1c(F)cc(F)cc1F`, the “Leaf infection [%] at 250 ppm” value was 10%.

test system: not given; assay: not given; conditions: not given

In the case of `Oc1nc2ncncc2c(O)c1-c1c(F)cc(F)cc1F` [Example 1, 6-(2,4,6-Trifluorophenyl)pyrido[2,3-d]pyrimidine-5,7-diol], the melting point is reported as 348 °C (dec.).

First: Fc1cc(F)c(-c2c(OCc3ccccc3)nc3ncncc3c2Cl)c(F)c1 (hydrate or solvate) [Example 3, 7-Benzyloxy-5-chloro-6-(2,4,6-trifluorophenyl)pyrido[2,3-d]pyrimidine]
Second: Fc1cc(F)c(-c2c(Cl)nc3ncncc3c2Cl)c(F)c1 [Example 2, 5,7-Dichloro-6-(2,4,6-trifluorophenyl)pyrido[2,3-d]pyrimidine]
The melting point of the first is lower: 146 °C for the first, 169 °C for the second.

Going from `Cc1ccc2c(O)c(-c3c(F)cc(F)cc3F)c(C)nc2n1` [Example 5, 2,7-Dimethyl-3-(2,4,6-trifluorophenyl)-[1,8]naphthyridin-4-ol] to `CC1CCN(c2c(-c3c(F)cc(F)cc3F)c(O)nc3ncncc23)CC1` [Example 8, 5-(4-Methylpiperidin-1-yl)-6-(2,4,6-trifluorophenyl)pyrido[2,3-d]pyrimidin-7-ol], the melting point falls from 315 °C to 268 °C.
